Values of other authors as cited in patent US10155994B2, “Methods of detecting DDR2 mutations” (QUEST DIAGNOSTICS INVESTMENTS INCORPORATED, priority 2012, dated 2018).

Conditions: current daily oral dosing; from Bradeen et al. Blood 2006

Structure (SMILES): Cc1nc(Nc2ncc(C(=O)Nc3c(C)cccc3Cl)s2)cc(N2CCN(CCO)CC2)n1 [dasatinib]
- achievable plasma trough concentration: 100 nM

Structure (SMILES): Cc1cn(-c2cc(NC(=O)c3ccc(C)c(Nc4nccc(-c5cccnc5)n4)c3)cc(C(F)(F)F)c2)cn1 [nilotinib]
- achievable plasma trough concentration: 2000 nM
